In one data set the test system is poliomyelitis virus. To be noted: cited from earlier work.
A further data set relates to poliovirus. To be noted: mouse, in vivo; cited from earlier work.
A further data set deals with HeLa cells. The settings on record: human.
The next data set deals with rhinovirus B14 (RV-B14). Description: organism not typed. The format is cell-based. To be noted: HeLa, 72 h, read-out: IC50 against Rhinoviruses (RV) RV-B14.
For data set [1], the system named is CVB3 97927-I1207M (pleconaril-resistant variant). The format is cell-based, coxsackievirus B3.
The subject of another data set is rhinovirus A2 (RV-A2). The data set is described as follows: organism not typed. The format is cell-based. To be noted: HeLa, 72 h, read-out: IC50 against Rhinoviruses (RV) RV-A2.
Data set [2] deals with CVB3 97927-I1207T (pleconaril-resistant variant). The format is cell-based, coxsackievirus B3.
Data set [3] deals with CVB3 97927-I1207K (pleconaril-resistant variant). The format is cell-based, coxsackievirus B3.
A further data set has as its system rhinovirus B5 (RV-B5). Description: organism not typed. To be noted: HeLa cells, CPE inhibition, 72 hours; n.a. = not active; read-out: IC50 against Rhinoviruses (RV) RV-B5. The format is cell-based.
The next data set in a line: in vitro. To be noted: human, HeLa cells.
In data set [4] the test system is coxsackievirus B3 I1207K and I1207R. The settings on record: in vitro; cited from earlier work.
Another data set concerns the target PXR (Homo sapiens, UniProt O75469). Description: biochemical.
Data set [5] deals with clinical isolates of enterovirus serotypes. The settings on record: most of 215 clinical isolates of enterovirus serotypes; cited from earlier work.
Data set [6] has as its system Enterovirus D68 (EV-D68 MP30 PP). The format is in vivo, AG129 mice. The settings on record: guanidine 100 mg/kg/d IP, days 1 and 3 post-infection.

Chain of PXR (O75469 111-434 limits assumed): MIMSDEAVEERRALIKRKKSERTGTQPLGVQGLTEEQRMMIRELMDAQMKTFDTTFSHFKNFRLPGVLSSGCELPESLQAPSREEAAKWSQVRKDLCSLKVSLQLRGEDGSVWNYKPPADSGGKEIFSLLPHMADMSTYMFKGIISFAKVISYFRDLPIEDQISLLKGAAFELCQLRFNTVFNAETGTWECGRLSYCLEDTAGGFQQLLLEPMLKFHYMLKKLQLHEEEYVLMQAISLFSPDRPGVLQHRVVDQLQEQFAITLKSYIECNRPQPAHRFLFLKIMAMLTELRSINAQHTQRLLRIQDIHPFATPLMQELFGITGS

For the compound `CCC(=O)C(CCCCCCOc1ccc(OC)cc1Cl)C(=O)CC` [Arildone], in the data set on poliomyelitis virus, the “replication of poliomyelitis virus in vitro” value is given as “specifically inhibits replication of poliomyelitis virus in vitro”. Also, the “poliovirus-induced paralysis and death” value with poliovirus is “prevents poliovirus-induced paralysis and death in mice”.
What is called CC50 is the concentration giving 50% cytotoxicity. By IC50 is commonly meant the midpoint of a concentration-inhibition curve. In the data set with HeLa cells, `Cc1cc(-c2noc(C(F)(F)F)n2)cc(C)c1OCCCc1cc(C(=O)NCc2ccccc2)no1` [Compound 1, N-benzyl-5-(3-{2,6-dimethyl-4-[5-(trifluoromethyl)-1,2,4-oxadiazol-3-yl]phenoxy}propyl)isoxazole-3-carboxamide] had a CC50 of over 100000 nM. Further, the IC50 with rhinovirus B14 (RV-B14) amounted to 250 nM; in data set [1] it was 13100 nM; with rhinovirus A2 (RV-A2), 230 nM.
On to `CNC(=O)c1cc(CCCOc2c(C)cc(-c3noc(C(F)(F)F)n3)cc2C)on1` [Compound 2, 5-(3-{2,6-dimethyl-4-[5-(trifluoromethyl)-1,2,4-oxadiazol-3-yl]phenoxy}propyl)-N-methylisoxazole-3-carboxamide], for which, in the data set on HeLa cells, the CC50 was over 100000 nM. Moreover, the IC50 with rhinovirus B14 (RV-B14) is 20 nM; in data set [1], 370 nM; with rhinovirus A2 (RV-A2), 210 nM. Further, in the data set with Escherichia coli PQ37, the Mutagenicity result is recorded as “NO”.
`Cc1cc(-c2noc(C(F)(F)F)n2)cc(C)c1OCCCc1cc(C(N)=O)no1` [Compound 3, 5-(3-{2,6-dimethyl-4-[5-(trifluoromethyl)-1,2,4-oxadiazol-3-yl]phenoxy}propyl)isoxazole-3-carboxamide] displayed a CC50 with HeLa cells of over 100000 nM. The IC50 was found to be 220 nM in the data set with rhinovirus B14 (RV-B14), 1690 nM in [1] and 500 nM in the data set with rhinovirus A2 (RV-A2).
Turning to `Cc1cc(-c2noc(C(F)(F)F)n2)cc(C)c1OCCCc1cc(C(=O)N(C)C)no1` [Compound 4, 5-(3-{2,6-dimethyl-4-[5-(trifluoromethyl)-1,2,4-oxadiazol-3-yl]phenoxy}propyl)-N,N-dimethylisoxazole-3-carboxamide], the CC50 in the data set on HeLa cells came to 13200 nM. Besides, the IC50 is 120 nM with rhinovirus B14 (RV-B14); 1010 nM in data set [2]; under 30 nM in [1]; 8520 nM in [3]; 120 nM in the data set on rhinovirus A2 (RV-A2). Moreover, in the data set on Escherichia coli PQ37, the Mutagenicity result is recorded as “NO”.
As to `COc1cc(-c2noc(C(F)(F)F)n2)ccc1OCCCc1cc(C(=O)N(C)C)no1` [Compound 6, 5-(3-{2-methoxy-4-[5-(trifluoromethyl)-1,2,4-oxadiazol-3-yl]phenoxy}propyl)-N,N-dimethylisoxazole-3-carboxamide], it took 68000 nM to reach half-maximal cytotoxicity in the data set with HeLa cells (CC50). For the same compound, the IC50 came to 40 nM with rhinovirus B14 (RV-B14); 1660 nM in [2]; 3280 nM in the data set on rhinovirus B5 (RV-B5); 600 nM in data set [1]; 51700 nM in [3]; 1970 nM in the data set on rhinovirus A2 (RV-A2).
On to `CN(C)C(=O)c1cc(CCCOc2ccc(-c3noc(C(F)(F)F)n3)cc2[N+](=O)[O-])on1` [Compound 7, N,N-dimethyl-5-(3-{2-nitro-4-[5-(trifluoromethyl)-1,2,4-oxadiazol-3-yl]phenoxy}propyl)isoxazole-3-carboxamide], for which, in the data set with HeLa cells, the CC50 worked out at 22500 nM. The IC50 with rhinovirus B14 (RV-B14) is 280 nM; in [2], 30 nM; with rhinovirus B5 (RV-B5) it was 7630 nM; in data set [1], 1 nM; in [3], 6460 nM; in the data set with rhinovirus A2 (RV-A2) it was 670 nM. Besides, the Mutagenicity entry in the data set with Escherichia coli PQ37 is given as “NO”.
`CN(C)C(=O)c1cc(CCCOc2ccc(-c3noc(C(F)(F)F)n3)cc2F)on1` [Compound 9, 5-(3-{2-fluoro-4-[5-(trifluoromethyl)-1,2,4-oxadiazol-3-yl]phenoxy}propyl)-N,N-dimethylisoxazole-3-carboxamide]: the CC50 in the data set on HeLa cells was determined as 20200 nM. In addition, the IC50 with rhinovirus B14 (RV-B14) is 50 nM; in data set [2], 1430 nM; in the data set with rhinovirus B5 (RV-B5), 4040 nM; in data set [1] it was 50 nM; in the data set on rhinovirus A2 (RV-A2) it was 3770 nM.
`COc1cc(-c2noc(C(F)(F)F)n2)cc([N+](=O)[O-])c1OCCCc1cc(C(=O)N(C)C)no1` [Compound 10, 5-(3-{2-methoxy-6-nitro-4-[5-(trifluoromethyl)-1,2,4-oxadiazol-3-yl]phenoxy}propyl)-N,N-dimethylisoxazole-3-carboxamide] came in with a CC50 with HeLa cells of 25600 nM. Besides, the IC50 in the data set with rhinovirus B14 (RV-B14) was 200 nM; in data set [2], 840 nM; in data set [1], 880 nM; in the data set on rhinovirus A2 (RV-A2), 320 nM.
`CN(C)C(=O)c1cc(CCCOc2ccc(-c3noc(C(F)(F)F)n3)cc2)on1` [Compound 11, N,N-dimethyl-5-(3-{4-[5-(trifluoromethyl)-1,2,4-oxadiazol-3-yl]phenoxy}propyl)isoxazole-3-carboxamide] gave a CC50 with HeLa cells of 28000 nM. For the same compound, the IC50 with rhinovirus B14 (RV-B14) was 40 nM; in [2] it was 8110 nM; in the data set with rhinovirus B5 (RV-B5), 1740 nM; in data set [1], 20 nM; in data set [3] it was 27500 nM; in the data set with rhinovirus A2 (RV-A2), 4610 nM.
Turning to `CN(C)C(=O)c1cc(CCCOc2ccc(-c3noc(C(F)(F)F)n3)cc2C(F)(F)F)on1` [Compound 12, N,N-dimethyl-5-(3-{2-(trifluoromethyl)-4-[5-(trifluoromethyl)-1,2,4-oxadiazol-3-yl]phenoxy}propyl)isoxazole-3-carboxamide], in the data set with HeLa cells, the CC50 amounted to 19200 nM. For the same compound, the IC50 with rhinovirus B14 (RV-B14) stood at 6760 nM; in data set [2], 530 nM; in data set [1] it was 160 nM; in [3], 7180 nM; in the data set with rhinovirus A2 (RV-A2), 320 nM. The Mutagenicity result in the data set with Escherichia coli PQ37 is “NO”.
`CNC(=O)c1cc(CCCOc2ccc(-c3noc(C(F)(F)F)n3)cc2C(F)(F)F)on1` [Compound 13, N-methyl-5-(3-{2-(trifluoromethyl)-4-[5-(trifluoromethyl)-1,2,4-oxadiazol-3-yl]phenoxy}propyl)isoxazole-3-carboxamide] displayed a CC50 in the data set on HeLa cells of over 100000 nM. The IC50 in data set [2] amounted to 1040 nM; in data set [1] it was 60 nM; in the data set with rhinovirus A2 (RV-A2), 960 nM.
In the case of `Cc1cc(CCCOc2c(C)cc(-c3noc(C(F)(F)F)n3)cc2C)on1` [Pleconaril, reference compound], the IC50 is 60 nM in the data set on rhinovirus B14 (RV-B14); 9410 nM in [2]; 4500 nM in data set [1]; over 100000 nM at PXR; at most 30 nM in data set [5]. The same compound yielded a CC50 in “in vitro” of 45200 nM. Also, the “antiviral activity against coxsackievirus B3 with I1207K or I1207R in VP1” value in data set [4] is “completely abolish the antiviral activity”.
Turning to “Guanidine HCl [Gua- HCl, reference compound]”, the figures for the IC50 in data set [2], in [1] and in data set [3] were 807000 nM, 725000 nM and 705000 nM, respectively. Also, the “lung virus titers compared to placebo” value in data set [6] is listed as “reduction in virus titers”.

Source of the values: patent US12583848B2, “Isoxazole-3-carboxamide derivatives and their use for treatment of diseases caused by virus infection” (Collaborations Pharmaceuticals, Inc., priority 2019, dated 2026).
